pEC50: −log10 of the molar value. Structures can show the parent of a compound that is named as a salt.

This passage reports EC50 results from patent US12180226B2, “Spirotricycle RIPK1 inhibitors and methods of uses thereof” (Merck Sharp & Dohme LLC, priority 2021, dated 2024).

Chain of RIPK1 (recombinant GST-RIPK1 kinase domain, residues 1-327) (Q13546 1-327): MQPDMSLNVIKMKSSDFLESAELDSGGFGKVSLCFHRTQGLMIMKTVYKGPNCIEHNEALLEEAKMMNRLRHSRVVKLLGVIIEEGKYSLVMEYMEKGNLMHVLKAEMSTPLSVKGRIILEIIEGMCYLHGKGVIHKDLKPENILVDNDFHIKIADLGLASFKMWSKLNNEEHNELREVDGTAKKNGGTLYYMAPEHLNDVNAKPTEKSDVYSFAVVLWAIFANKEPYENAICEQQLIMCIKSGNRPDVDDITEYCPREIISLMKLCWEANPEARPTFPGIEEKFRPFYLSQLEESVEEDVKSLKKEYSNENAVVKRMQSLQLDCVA

This experiment concerns the target RIPK1 (recombinant GST-RIPK1 kinase domain, residues 1-327) (Homo sapiens (Human), UniProt Q13546). The experiment in a line: RIPK1-ADP-Glo Enzymatic Assay. Format: biochemical. The note with it: ADP-Glo; 25 nM GST-RIPK1, 300 μM ATP; assay lower limit ~25 nM; read-out: RIPK1 V0 Ec50. In a few lines: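 Using dephosphorylated MBP (3 μM) as substrate and 300 μM ATP, 25 nM baculovirus-produced enzyme was reacted for 150 min after a 30-min compound pre-incubation. Luminescent ADP detection followed; lower confidence limit ~25 nM.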
For `O=C1N2[C@@H](CC[C@H]2c2cnccn2)OC12CCN(c1ccnc3c(F)cnn13)CC2` [Example 4.143, (5′S,7a′R)-1-(3-fluoropyrazolo[1,5-a]pyrimidin-7-yl)-5′-(pyrazin-2-yl)tetrahydro-3′H-spiro[piperidine-4,2′-pyrrolo[2,1-b] [1,3]oxazol]-3′-one], the pEC50 was over 7.60.

Consider `O=C1N2[C@H](CC[C@@H]2c2ccccc2)SC12CCN(c1ccnc3ccnn13)CC2` [Example 4.115, (5′R,7a′S)-5′-phenyl-1-(pyrazolo[1,5-a]pyrimidin-7-yl)tetrahydro-3′H-spiro[piperidine-4,2′-pyrrolo[2,1-b]thiazol]-3′-one], for which the pEC50 was 6.74.

Take `O=C1N2[C@@H](CC[C@H]2c2ccccc2)OC12CCN(c1ncnc3ccnn13)CC2` [Example 4.93, (5′S,7a′R)-5′-phenyl-1-(pyrazolo[1,5-a] [1,3,5]triazin-4-yl)tetrahydro-3′H-spiro[piperidine-4,2′-pyrrolo[2,1-b]oxazol]-3′-one, TFA salt]: the negative-log EC50 (pEC50) is over 7.60.

In the case of `N#Cc1cc([C@@H]2CC[C@H]3OC4(CCN(C(=O)c5ccccc5)CC4)C(=O)N32)ccc1F` [Example 17.4, 5-((5′S,7a′R)-1-benzoyl-3′-oxotetrahydro-3′H-spiro[piperidine-4,2′-pyrrolo[2,1-b]oxazol]-5′-yl)-2-fluorobenzonitrile], the negative-log EC50 (pEC50) was 6.71.

For the compound `O=C1N2[C@@H](CC[C@H]2c2ccccc2)OC12CCN(c1ncccc1C(F)F)CC2` [Example 11.24, (5′S,7a′R)-1-[3-(difluoromethyl)pyridin-2-yl]-5′-phenyltetrahydro-3′H-spiro[piperidine-4,2′-pyrrolo[2,1-b][1,3]oxazol]-3′-one], the pEC50 was 6.44.

`O=C1N2[C@@H](CC[C@H]2c2ccccc2)OC12CCN(c1ncc(-c3cocn3)cc1F)CC2` [Example 21.6, (5′S,7a′R)-1-[3-fluoro-5-(1,3-oxazol-4-yl)pyridin-2-yl]-5′-phenyltetrahydro-3′H-spiro[piperidine-4,2′-pyrrolo[2,1-b][1,3]oxazol]-3′-one]: the pEC50 was over 7.60.

With `NC(=O)c1ccc(N2CCC3(CC2)O[C@@H]2CC[C@@H](c4cccc(F)c4)N2C3=O)n2ncnc12` [Example 4.152, 5-[(5′S,7a′R)-5′-(3-fluorophenyl)-3′-oxotetrahydro-1H,3′H-spiro[piperidine-4,2′-pyrrolo[2,1-b] [1,3]oxazol]-1-yl][1,2,4]triazolo[1,5-a] pyridine-8-carboxamide], the pEC50 is over 7.60.

`CC1CC2(CCN1C(=O)c1ccccc1)O[C@@H]1CC[C@@H](c3cc(F)cc(F)c3)N1C2=O` (stereo partly drawn) [Example 6.105, (4R,5′S,7a′R)-1-(benzenecarbonyl)-5′-(3,5-difluorophenyl)-2-methyltetrahydro-3′H-spiro[piperidine-4,2′-pyrrolo[2,1-b] [1,3]oxazol]-3′-one]: the pEC50 is 6.08.

In the case of `Cc1nccnc1C(=O)N1CCC2(CC1)O[C@@H]1CC[C@@H](c3cc(F)cc(F)c3)N1C2=O` [Example 6.2, (5′S,7a′R)-5′-(3,5-difluorophenyl)-1-(3-methylpyrazine-2-carbonyl)tetrahydro-3′H-spiro[piperidine-4,2′-pyrrolo[2,1-b] [1,3]oxazol]-3′-one], the negative-log EC50 (pEC50) was 6.31.

With `O=C(c1ccccc1)N1C2CCC1CC1(C2)O[C@@H]2CC[C@@H](c3cc(F)cc(F)c3)N2C1=O` (stereo partly drawn) [Example 6.134, (5′S,7a′R)-8-(benzene-carbonyl)-5′-(3,5-difluorophenyl)tetra-hydro-3′H-spiro[8-azabicyclo[3.2.1]-octane-3,2′-pyrrolo-[2,1-b][1,3]oxazol]-3′-one], the negative-log EC50 (pEC50) was 7.03.

Take `N#Cc1ccccc1C(=O)N1CCC2(CC1)O[C@@H]1CC[C@@H](c3cc(F)cc(F)c3)N1C2=O` [Example 5.13, 2-((5′S,7a′R)-5′-(3,5-difluorophenyl)-3′-oxo-tetrahydro-3′H-spiro [piperidine-4,2′-pyrrolo-[2,1-b]oxazole]-1-carbon-yl)benzonitrile]: the pEC50 is 6.56.

As to `COc1cccc(C(=O)N2CCC3(CC2)O[C@@H]2CC[C@@H](c4cccc(F)c4)N2C3=O)c1` [Example 6.117, (5′S,7a′R)-5′-(3-fluorophenyl)-1-(3-methoxybenzene-1-carbonyl)tetrahydro-3′H-spiro[piperidine-4,2′-pyrrolo[2,1-b] [1,3]oxazol]-3′-one], the negative-log EC50 (pEC50) was over 7.60.

For the compound `Cc1nc2sccn2c1C(=O)N1CCC2(CC1)O[C@@H]1CC[C@@H](c3cc(F)cc(F)c3)N1C2=O` [Example 6.43, (5′S,7a′R)-5′-(3,5-difluorophenyl)-1-(6-methylimidazo[2,1-b][1,3]thiazole-5-carbonyl)tetrahydro-3′H-spiro[piperidine-4,2′-pyrrolo[2,1-b] [1,3]oxazol]-3′-one], the pEC50 is 6.82.

For the compound `O=C1N2[C@@H](CC[C@H]2c2ccccc2F)OC12CN(S(=O)(=O)c1cccc(F)c1)C2` [Example 8.6, (5′S,7a′R)-5′-(2-fluorophenyl)-1-((3-fluorophenyl)sulfonyl) tetrahydro-3′H-spiro[azetidine-3,2′-pyrrolo[2,1-b]oxazol]-3′-one], the pEC50 was 6.38.

Take `CC(C)c1oncc1C(=O)N1CCC2(CC1)O[C@@H]1CC[C@@H](c3cc(F)cc(F)c3)N1C2=O` [Example 6.49, (5′S,7a′R)-5′-(3,5-difluorophenyl)-1-[5-(propan-2-yl)-1,2-oxazole-4-carbonyl]-tetrahydro-3′H-spiro [piperidine-4,2′-pyrrolo[2,1-b][1,3]-oxazol]-3′-one]: the negative-log EC50 (pEC50) was 6.00.

As to `Cc1ccnc(C(=O)N2CCC3(CC2)O[C@@H]2CC[C@@H](c4cc(F)cc(F)c4)N2C3=O)c1` [Example 6.102, (5′S,7a′R)-5′-(3,5-difluorophenyl)-1-(4-methylpyridine-2-carbonyl)tetrahydro-3′H-spiro[piperidine-4,2′-pyrrolo[2,1-b] [1,3]oxazol]-3′-one], the pEC50 is 7.31.

`O=C1N2[C@@H](CC[C@H]2c2cc(F)cc(F)c2)OC12CCN(c1ncnc3ccnn13)CC2` [Example 4.128, (5′S,7a′R)-5′-(3,5-difluorophenyl)-1-(pyrazolo[1,5-a] [1,3,5]triazin-4-yl)tetrahydro-3′H-spiro[piperidine-4,2′-pyrrolo[2,1-b] [1,3]oxazol]-3′-one]: the negative-log EC50 (pEC50) is over 7.60.

For the compound `O=C(c1cnc2cccnn12)N1CCC2(CC1)O[C@@H]1CC[C@@H](c3cc(F)cc(F)c3)N1C2=O` [Example 6.16, (5′S,7a′R)-5′-(3,5-difluorophenyl)-1-(imidazo[1,2-b]-pyridazine-3-carbon-yl)tetrahydro-3′H-spiro[piperidine-4,2′-pyrrolo[2,1-b][1,3]oxazol]-3′-one], the negative logarithm of the EC50 (pEC50) was 6.56.

For the compound `CC1(C)Cc2cccc(C(=O)N3CCC4(CC3)O[C@@H]3CC[C@@H](c5cc(F)cc(F)c5)N3C4=O)c2O1` [Example 6.32, (5′S,7a′R)-5′-(3,5-difluorophenyl)-1-(2,2-dimethyl-2,3-dihydro-1-benzo-furan-7-carbonyl)-tetrahydro-3′H-spiro [piperidine-4,2′-pyrrolo[2,1-b][1,3]oxazol]-3′-one], the pEC50 is 6.64.

Take `CC(C)(C)OC(=O)c1ccc(N2CCC3(CC2)O[C@@H]2CC[C@@H](c4ccccc4)N2C3=O)nc1` [Example 4.198, tert-butyl 6-[(5′S,7a′R)-3′-oxo-5′-phenyltetrahydro-1H,3′H-spiro[piperidine-4,2′-pyrrolo[2,1-b] [1,3]oxazol]-1-yl]pyridine-3-carboxylate]: the negative logarithm of the EC50 (pEC50) is 6.60.

Consider `O=C(c1cnc2snnc2c1)N1CCC2(CC1)O[C@@H]1CC[C@@H](c3cc(F)cc(F)c3)N1C2=O` [Example 6.46, (5′S,7a′R)-5′-(3,5-difluorophenyl)-1-([1,2,3]thiadiazolo-[5,4-b]pyridine-6-carbonyl)tetrahydro-3′H-spiro[piperidine-4,2′-pyrrolo[2,1-b] [1,3]oxazol]-3′-one], for which the pEC50 was 6.68.

For `O=C1N2[C@@H](CC[C@H]2c2ccccc2F)OC12CN(S(=O)(=O)c1ccc(F)cc1)C2` [Example 8.7, (5′S,7a′R)-5′-(2-fluorophenyl)-1-((4-fluorophenyl)sulfonyl) tetrahydro-3′H-spiro[azetidine-3,2′-pyrrolo[2,1-b]oxazol]-3′-one], the pEC50 is 6.46.

Turning to `O=C(c1cccc2ccnn12)N1CCC2(CC1)O[C@@H]1CC[C@@H](c3cc(F)cc(F)c3)N1C2=O` [Example 6.27, (5′S,7a′R)-5′-(3,5-difluorophenyl)-1-(pyrazolo[1,5-a]pyridine-7-carbonyl) tetrahydro-3′H-spiro [piperidine-4,2′-pyrrolo[2,1-b][1,3]oxazol]-3′-one], the pEC50 was 7.32.

The pEC50 is the negative decadic logarithm of the EC50, by convention in mol/L.
